According to ChEMBL document CHEMBL2424611, “Identification of potent, selective, CNS-targeted inverse agonists of the ghrelin receptor” (Bioorg Med Chem Lett, 2013):

Key:
[1] = target: T1, Muscarinic acetylcholine receptor M2 (Homo sapiens, UniProt P08172); assay: Displacement of N-methyl [3H]-scopolamine from recombinant human muscarinic acetylcholine receptor M2 expressed in CHO cells after 2 hrs by liquid scintillation counting; format: cell-based; conditions: for pKi: cho
T1 sequence (P08172 whole entry): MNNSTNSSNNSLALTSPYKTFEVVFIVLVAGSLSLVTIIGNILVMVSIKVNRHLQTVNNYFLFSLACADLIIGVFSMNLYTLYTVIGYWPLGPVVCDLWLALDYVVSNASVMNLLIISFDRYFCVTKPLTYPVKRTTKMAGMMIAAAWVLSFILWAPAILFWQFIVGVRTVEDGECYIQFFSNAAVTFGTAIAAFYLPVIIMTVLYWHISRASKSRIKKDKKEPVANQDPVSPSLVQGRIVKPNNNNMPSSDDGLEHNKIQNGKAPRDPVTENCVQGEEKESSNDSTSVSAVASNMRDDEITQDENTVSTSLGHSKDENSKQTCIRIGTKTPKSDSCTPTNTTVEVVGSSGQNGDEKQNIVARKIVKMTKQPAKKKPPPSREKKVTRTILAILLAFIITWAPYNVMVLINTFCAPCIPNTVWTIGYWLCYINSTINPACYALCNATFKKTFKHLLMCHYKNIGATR

[2] = target: T2, Growth hormone secretagogue receptor type 1 (Homo sapiens, UniProt Q92847); assay: Displacement of [125I]-ghrelin from human GHS-R1a expressed in tetracycline inducible HEK293 cells after 8 hrs by liquid scintillation counting; format: cell-based; conditions: for pKi: hek293
T2 sequence (Q92847 whole entry): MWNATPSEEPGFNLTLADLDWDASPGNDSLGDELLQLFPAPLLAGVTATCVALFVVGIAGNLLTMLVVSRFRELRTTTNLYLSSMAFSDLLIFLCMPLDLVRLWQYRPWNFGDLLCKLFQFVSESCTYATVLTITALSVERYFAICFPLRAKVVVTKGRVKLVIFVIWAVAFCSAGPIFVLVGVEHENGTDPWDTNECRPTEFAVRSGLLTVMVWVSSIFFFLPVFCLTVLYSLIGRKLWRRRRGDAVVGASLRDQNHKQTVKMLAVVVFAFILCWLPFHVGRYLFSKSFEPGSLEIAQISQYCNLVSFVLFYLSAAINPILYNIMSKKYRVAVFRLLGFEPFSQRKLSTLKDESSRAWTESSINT

Rattus norvegicus = assay: Ex vivo receptor occupancy of GHS-R1a in Sprague-Dawley rat hypothalamus at 10 mg/kg, po measured at 1 hr by liquid scintillation counting in presence of [His [125I]]-Ghrelin; format: functional
[3] = target: T2, Growth hormone secretagogue receptor type 1; assay: Inverse agonist activity at human GHS-R1a expressed in tetracycline inducible HEK293 cells incubated for 24 hrs prior to europium-labeled GTP addition measured after 90 mins by DELFIA assay; format: cell-based; design: Activity: concentration or dose not given beside the values
[4] = Apparent intrinsic clearance in human liver microsomes; format: ADME, Microsome; conditions: read-out: CLH(app)
human MDR1 (P-gp) = assay: Efflux ratio of permeability in MDCK cells expressing human MDR-1 gene; format: ADME, cell-based, Canis lupus familiaris; conditions: dog
[5] = target: T1, Muscarinic acetylcholine receptor M2; assay: Binding affinity to muscarinic acetylcholine receptor M2 (unknown origin)

Compound	Ki [1] [µM]	Activity [3] [%]	pKb [3]	Ki [2] [µM]	Occ (Rattus norvegicus) [%]	also measured
COc1ccc(CC(=O)N2CCC3(CC2)CN([C@H](c2ccc(-c4ncccn4)cc2)C(C)C)C3)nc1	0.912					pKi [2]: < 4.68
COCC(c1ccc(-c2ncccn2)cc1)N1CC2(CCN(C(=O)Cc3ccc(OC)cn3)CC2)C1 (configuration not stated)	7.08			3.63		
COc1ccc(CC(=O)N2CCC3(CC2)CN(Cc2ccc(-c4ncccn4)cc2Cl)C3)cc1	1.95					IC50 [2]: 0.0158 µM
COc1ccc(CC(=O)N2CCC3(CC2)CN([C@@H](C)c2ccc(-c4ncccn4)cc2)C3)nc1	2.24			1.12		
COc1ccc(CC(=O)N2CCC3(CC2)CN([C@@H](c2ccc(-c4ncccn4)cc2)C(C)C)C3)nc1	0.0479					pKi [2]: < 4.53
COc1ccc(CC(=O)N2CCC3(CC2)CN([C@H](C)c2ccc(-c4ncccn4)cc2)C3)nc1	20			25.1		
Cc1cn2cc(CC(=O)N3CCC4(CC3)CN(Cc3ccc(-n5nccn5)cc3Cl)C4)nc2s1						Ki [5]: 0.269 µM
COc1ccc(CC(=O)N2CCC3(CC2)CN([C@@H]2CCc4cc(-c5ncccn5)ccc42)C3)cc1					85	
COc1ccc(CC(=O)N2CCC3(CC2)CN([C@@H]2CCc4cc(-n5nccn5)ccc42)C3)cc1		21	8.27	0.00741	74	pKi [1]: < 4.26
COc1ccc(CC(=O)N2CCC3(CC2)CN(C(c2ccc(-c4ncccn4)cc2)C(C)C)C3)nc1 (configuration not stated)	0.151					pKi [2]: < 4.52
COc1ccc(CC(=O)N2CCC3(CC2)CN(C(C)c2ccc(-c4ncccn4)cc2)C3)nc1 (configuration not stated)	2.4			1.7		

Further lines, with some results ahead:

Ki [1] [µM]	Activity [3] [%]	pKb [3]	Ki [2] [µM]	Compound	Occ (Rattus norvegicus) [%]	also measured
0.871				COc1ccc(CC(=O)N2CCC3(CC2)CN(C2CCc4cc(-c5nccs5)ccc42)C3)nc1 (configuration not stated)		IC50 [2]: 0.0302 µM
	23	7.38		CCc1ccc(CC(=O)N2CCC3(CC2)CN([C@@H]2CCc4cc(-n5nccn5)ccc42)C3)nc1	74	pKi [1]: < 4.59
21.9	40	7.23		Cc1ccc(CC(=O)N2CCC3(CC2)CN([C@@H]2CCc4cc(-n5nccn5)ccc42)C3)nc1	23	
	39	7.4	0.00398	COc1ccc(CC(=O)N2CCC3(CC2)CN([C@@H]2CCc4cc(-c5nccs5)ccc42)C3)nc1	35	pKi [1]: < 4.25
1.62				COc1ccc(CC(=O)N2CCC3(CC2)CN(C2CCc4cc(-c5ncccn5)ccc42)C3)nc1 (racemic)		IC50 [2]: 0.0372 µM
	21	6.98		Cc1ccc(CC(=O)N2CCC3(CC2)CN([C@@H]2CCc4cc(-c5ncccn5)ccc42)C3)nc1	0.2	pKi [1]: < 4.56; microsomal CLint [4]: 22 µL/min/mg; efflux ratio (human MDR1 (P-gp)): 2
1.55			1.38	COc1ccc(CC(=O)N2CCC3(CC2)CN([C@H]2CCc4cc(-c5nccs5)ccc42)C3)nc1		
28.2	22	7.13	0.0155	CCc1ccc(CC(=O)N2CCC3(CC2)CN([C@@H]2CCc4cc(-c5ncccn5)ccc42)C3)nc1	10	
	29	7.37		CCc1cnc(-c2ccc3c(c2)CC[C@H]3N2CC3(CCN(C(=O)Cc4ccc(OC)cn4)CC3)C2)nc1	64	pKi [1]: < 4.17
	42	7.57		COc1ccc(CC(=O)N2CCC3(CC2)CN([C@@H]2CCc4cc(-n5nccn5)ccc42)C3)nc1	50	pKi [1]: < 4.42
	40	7.07		COc1ccc(CC(=O)N2CCC3(CC2)CN([C@@H]2CCc4cc(-c5ncc(C)cn5)ccc42)C3)nc1	5	pKi [1]: < 4.17
14.5	42	7.6	0.0295	COc1ccc(CC(=O)N2CCC3(CC2)CN([C@@H]2CCc4cc(-c5ncccn5)ccc42)C3)nc1	45	
0.407				COc1ccc(CC(=O)N2CCC3(CC2)CN([C@H]2CCc4cc(-c5ncccn5)ccc42)C3)nc1		IC50 [2]: 1.1 µM
